Among the test systems are Escherichia coli; Helicobacter pylori; Listeria monocytogenes; Escherichia coli O157; Salmonella typhimurium; Bacillus subtilis 1A751; Botrytis cinerea; Escherichia coli SBS 363; Fusarium oxysporum; Bacillus megaterium; Escherichia coli O157:H7; Vibrio cholerae non-O139; Vibrio cholerae non-O1.
What all share (assay): ≥ marks a high value that may be exact or a test limit, other limits are often not marked, values filed in µg/mL are converted to µM
The subject of assay [1] is Salmonella enterica subsp. enterica serovar Paratyphi A.
For assay [2], the system named is Staphylococcus aureus A170.
The test system of assay [3] is Staphylococcus epidermidis.
Assay [4] relates to Escherichia coli ATCC 25404.
Assay [5] deals with Micrococcus luteus ATCC 10420.
In assay [6] the test system is Staphylococcus aureus ATCC 29213.
For assay [7], the system named is Staphylococcus aureus ATCC 43300.
Assay [8] deals with Staphylococcus epidermidis ATCC 9709.
For assay [9], the system named is Escherichia coli ATCC 25922.
In assay [10] the test system is Salmonella enterica subsp. enterica serovar Choleraesuis CMCC 50020.
Assay [11] deals with Staphylococcus aureus ATCC 25923.
Assay [12] has as its system Bacillus subtilis IFO 3513.
Assay [13] has as its system Escherichia coli IFO 12734.
Assay [14] has as its system Staphylococcus aureus IFO 12732.
Assay [15] has as its system Micrococcus luteus CIP 5345.
Assay [16] has as its system Candida albicans ATCC 64550.
In assay [17] the test system is Pseudomonas aeruginosa ATCC 27853.
Assay [18] concerns Lysinibacillus sphaericus TISTR 678.
In assay [19] the test system is Salmonella enterica subsp. enterica serovar Typhi ATCC 5784.
The test system of assay [20] is Salmonella enterica subsp. enterica serovar Typhi DMST 22842.
For assay [21], the system named is Salmonella enterica subsp. enterica serovar Typhi.
The subject of assay [22] is Staphylococcus epidermidis ATCC 12228.

≈ marks a conversion by molar mass, not a printed value. Where “and” joins values, the source holds several entries; their conditions need not be identical. Identical values can stand only once. Some results are limits rather than exact numbers.

In the case of `C[C@@H](O)[C@H](NC(=O)[C@H](CS)NC(=O)[C@H](Cc1ccccc1)NC(=O)[C@H](CS)NC(=O)[C@H](CCCN=C(N)N)NC(=O)[C@H](CCCN=C(N)N)NC(=O)[C@H](CCCN=C(N)N)NC(=O)[C@H](Cc1ccccc1)NC(=O)CNC(=O)[C@H](CCCN=C(N)N)NC(=O)[C@H](CS)NC(=O)[C@H](CC(N)=O)NC(=O)CNC(=O)CNC(=O)[C@H](CO)NC(=O)[C@@H](N)Cc1ccccc1)C(=O)N[C@@H](CCCCN)C(N)=O` [FSGGNCRGFRRRCFCTK], the minimum inhibitory concentration (MIC) – broadly, the lowest concentration found to suppress growth – is 7.52 µM (≈ 15 µg/mL) against Escherichia coli; 7.52 µM and 5.01 µM and 6.01 µM against Helicobacter pylori; 20 µM (≈ 40 µg/mL) in the assay on Listeria monocytogenes; 7.52 µM (≈ 15 µg/mL) in assay [1]; 20 µM (≈ 40 µg/mL) in [2]; 20 µM (≈ 40 µg/mL) in assay [3].

With `CC(C)C[C@H](NC(=O)[C@H](CC(C)C)NC(=O)[C@H](Cc1cnc[nH]1)NC(=O)[C@H](CO)NC(=O)[C@H](CC(C)C)NC(=O)[C@H](C)NC(=O)[C@H](Cc1cnc[nH]1)NC(=O)[C@H](Cc1ccccc1)NC(=O)[C@H](CC(C)C)NC(=O)[C@H](C)NC(=O)CNC(=O)[C@H](CC(C)C)NC(=O)[C@@H](N)Cc1ccccc1)C(=O)O` [FLGALFHALSHLL], the MIC in assay [4] is at least 64 µM; against Escherichia coli O157, at least 64 µM; with Listeria monocytogenes, at least 64 µM; in [5], 8 µM (≈ 11.5 µg/mL); in the assay on Salmonella typhimurium, at least 64 µM; in [6], 8 µM (≈ 11.5 µg/mL). Also, the minimal inhibitory concentration (MIC) in [7] and in assay [8] was 16 µM (≈ 23 µg/mL) throughout.

`CC[C@H](C)[C@H](NC(=O)[C@H](CCCCN)NC(=O)[C@@H](NC(=O)[C@H](CC(C)C)NC(=O)[C@@H](NC(=O)[C@H](CCCCN)NC(=O)[C@H](CC(C)C)NC(=O)[C@H](Cc1ccccc1)NC(=O)[C@H](Cc1ccccc1)NC(=O)[C@H](CCCCN)NC(=O)[C@@H](N)CCCCN)C(C)C)[C@@H](C)O)C(=O)N[C@@H](CCCN=C(N)N)C(=O)N[C@H]1CSSC[C@@H](C(=O)N[C@@H](CCCN=C(N)N)C(=O)N[C@H](C(=O)O)[C@@H](C)O)NC(=O)CNC(=O)CNC(=O)[C@H](C)NC(=O)[C@H](C(C)C)NC(=O)[C@H](CCCCN)NC1=O` [KKFFLKVLTKIRCKVAGGCRT]: the MIC in the assay on Bacillus subtilis 1A751 was at least 53.4 µM; in [9] it was 3.34 µM (≈ 7.99 µg/mL); in assay [10], 6.67 µM (≈ 16 µg/mL); in assay [11] it was 3.34 µM (≈ 7.99 µg/mL).

With `CC[C@H](C)[C@H](N)C(=O)N[C@@H](CC(C)C)C(=O)N1CCC[C@H]1C(=O)N[C@@H](Cc1c[nH]c2ccccc12)C(=O)N[C@@H](CCCCN)C(=O)N[C@@H](Cc1c[nH]c2ccccc12)C(=O)N1CCC[C@H]1C(=O)N[C@@H](Cc1c[nH]c2ccccc12)C(=O)N[C@@H](CC(C)C)C(=O)N1CCC[C@H]1C(=O)N[C@@H](CC(C)C)C(=O)N[C@@H](CCCN=C(N)N)C(=O)N[C@@H](CCCN=C(N)N)C(N)=O` [ILPWKWPWLPLRR], the figures for the MIC in [12], in assay [13] and in assay [14] were 28.4 µM (≈ 50 µg/mL), at least 56.8 µM and 14.2 µM (≈ 25 µg/mL), respectively.

In the case of `CC[C@H](C)[C@H](N)C(=O)N[C@@H](CC(C)C)C(=O)N[C@@H](CCC(=O)O)C(=O)N[C@@H](CC(N)=O)C(=O)N[C@@H](CC(C)C)C(=O)N[C@@H](CC(C)C)C(=O)N[C@@H](C)C(=O)N[C@@H](CCCN=C(N)N)C(=O)N[C@@H](CO)C(=O)N[C@H](C(=O)N[C@@H](CC(N)=O)C(=O)N[C@@H](CCC(=O)O)C(=O)N[C@@H](CC(=O)O)C(=O)N[C@@H](CCCN=C(N)N)C(=O)N[C@@H](CCC(=O)O)C(=O)NCC(=O)N[C@@H](CO)C(=O)N[C@H](C(=O)N[C@@H](Cc1ccccc1)C(=O)O)[C@@H](C)CC)[C@@H](C)O` [ILENLLARSTNEDREGSIF], the minimum inhibitory concentration (MIC) (in the assay on Botrytis cinerea; against Escherichia coli SBS 363; with Fusarium oxysporum; in assay [15]) was at least 200 µM each time.

In the case of `CC(C)C[C@H](NC(=O)[C@H](Cc1c[nH]c2ccccc12)NC(=O)[C@@H](N)CCCCN)C(=O)N[C@@H](CCCN=C(N)N)C(=O)N[C@@H](CCCN=C(N)N)C(=O)N[C@H](C(=O)N[C@@H](Cc1c[nH]c2ccccc12)C(=O)N[C@@H](CCCN=C(N)N)C(=O)N[C@@H](Cc1c[nH]c2ccccc12)C(=O)N[C@@H](Cc1c[nH]c2ccccc12)C(=O)N[C@@H](CCCN=C(N)N)C(N)=O)C(C)C` [KWLRRVWRWWR], the minimal inhibitory concentration (MIC) in assay [16] is at least 100 µM; in assay [9] it was 15 µM (≈ 25.9 µg/mL); in [17] it was 20 µM (≈ 34.5 µg/mL); in [11], 2.5 µM (≈ 4.32 µg/mL).

Turning to `CC(C)[C@H](NC(=O)CNC(=O)[C@@H](N)CC(N)=O)C(=O)N[C@@H](CCC(N)=O)C(=O)N1CCC[C@H]1C(=O)N[C@@H](CCCCN)C(=O)N[C@@H](Cc1ccc(O)cc1)C(=O)O` [NGVQPKY], the minimal inhibitory concentration (MIC) is at least 64 µM in the assay with Bacillus megaterium; above 248 µM in assay [9]; at least 64 µM against Escherichia coli O157:H7; at least 64 µM in assay [18]; above 248 µM in [17]; at least 64 µM in assay [19]. Also, the minimal inhibitory concentration (MIC) in [20] is at least 248 µM; in [21] it was 31.1 µM and ≥ 64 µM; in assay [11], above 248 µM; in [22] it was above 248 µM; in assay [3] it was 31.1 µM (≈ 25 µg/mL); with Vibrio cholerae non-O139 it was at least 248 µM. This compound had a minimal inhibitory concentration (MIC) against Vibrio cholerae non-O1 of at least 248 µM.

The values above are taken from DBAASP.
